Like-named read-outs stand apart in the source and are kept apart here.

For one assay, the target named is Wee1 (h) (Homo sapiens, UniProt P30291). Put plainly: Wee1 kinase (h) detection method, [γ-33P]-ATP filter assay. Format: biochemical.
A further assay deals with LoVo cells. Put plainly: MTT based cell viability assay on LoVo cells. Particulars: Homo sapiens, LoVo, 72 h, 3 d, read-out: IC50, growth inhibition of LoVo cells. The procedure, abridged: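 Inhibition of LoVo proliferation was derived as IC50 from a sigmoidal dose-response fit of cell survival. Readout was MTT (0.5 mg/mL, 4 h) with absorbance at 552/630/690 nm, after 3-day treatment at 37 °C. Eight-point series from 10 μM to 0.01 μM, DMSO control, 1% DMSO final.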

A further assay has as its system NCI-H1299 cells. The assay can be described thus: MTT based cell viability assay on NCI-H1299 cells. Particulars: Homo sapiens, read-out: IC50, growth inhibition of NCI-H1299 cells. Summed up: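 NCI-H1299 cells (1000/well, settled overnight) were exposed for 3 d at 37 °C, 5% CO2, to an eight-point series of 10 μM to 0.01 μM plus DMSO blank, as prepared in DMSO (final DMSO 1‰). MTT (0.5 mg/mL, 4 h) was read at 552/630/690 nm. IC50 came from sigmoidal dose-response fits of survival.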

Wee1 (h), sequence (P30291 whole entry): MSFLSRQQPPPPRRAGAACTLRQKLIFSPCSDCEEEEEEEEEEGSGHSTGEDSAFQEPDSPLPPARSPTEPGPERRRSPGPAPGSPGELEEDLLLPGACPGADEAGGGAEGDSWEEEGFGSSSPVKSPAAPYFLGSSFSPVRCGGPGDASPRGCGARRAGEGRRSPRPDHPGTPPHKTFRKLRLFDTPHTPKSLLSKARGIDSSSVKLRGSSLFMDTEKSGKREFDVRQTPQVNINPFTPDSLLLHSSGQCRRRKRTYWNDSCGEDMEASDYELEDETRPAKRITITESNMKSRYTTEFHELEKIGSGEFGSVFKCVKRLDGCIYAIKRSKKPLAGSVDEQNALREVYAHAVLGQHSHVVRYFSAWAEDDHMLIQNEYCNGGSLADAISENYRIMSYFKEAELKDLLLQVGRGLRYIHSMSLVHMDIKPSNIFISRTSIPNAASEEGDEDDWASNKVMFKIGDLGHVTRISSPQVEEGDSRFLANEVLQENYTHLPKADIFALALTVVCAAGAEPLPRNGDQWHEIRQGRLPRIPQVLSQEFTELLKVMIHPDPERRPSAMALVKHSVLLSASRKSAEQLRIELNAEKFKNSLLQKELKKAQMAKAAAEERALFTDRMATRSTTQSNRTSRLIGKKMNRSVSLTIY

On to `CN(C)C1CCN(c2ccc(Nc3ncc4c(n3)N3CCN=C3N(c3c(Cl)cccc3Cl)C4=O)cc2Br)CC1` [Example 140, 6-(2,6-Dichlorophenyl)-2-((3-bromo-4-(4-(dimethylamino)piperidin-1-yl)phenyl)amino)-8,9-dihydroimidazo[1,2-a]pyrimido[5,4-e]pyrimidin-5(6H)-one], for which the “Inh. (%) of Wee1 kinase enzyme activity” value on Wee1 (h) (C 0.01 μm compound) amounted to 32%; at Wee1 (h) (C 0.1 μm compound) it was 82%; at Wee1 (h) (C 1 μm compound) it was 98%. Besides, the IC50 with LoVo cells turned out to be 58.2 nM; with NCI-H1299 cells (NCI-H1299, NCI-H1299 cells), 92.9 nM.
Regarding `CN1CCCN(c2ccc(Nc3ncc4c(n3)N3CCN=C3N(c3c(F)cccc3Cl)C4=O)cc2)CC1` [Example 103, 6-(2-Chloro-6-fluorophenyl)-2-((4-(4-methyl-1,4-diazepan-1-yl)phenyl)amino)-8,9-dihydroimidazo[1,2-a]pyrimido[5,4-e]pyrimidin-5(6H)-one], the “Inh. (%) of Wee1 kinase enzyme activity” value worked out at 30% at Wee1 (h) (C 0.01 μm compound), 70% at Wee1 (h) (C 0.1 μm compound) and 92% on Wee1 (h) (C 1 μm compound). The results for the IC50 with LoVo cells and with NCI-H1299 cells (NCI-H1299 cells) were 678 nM and 1050 nM, respectively.
As to `CN1CCC(Nc2ccc(Nc3ncc4c(n3)N3CCN=C3N(c3c(F)cccc3Cl)C4=O)cc2)CC1` [Example 112, 6-(2-Chloro-6-fluorophenyl)-2-((4-((1-methylpiperidin-4-yl)amino)phenyl)amino)-8,9-dihydroimidazo[1,2-a]pyrimido[5,4-e]pyrimidin-5(6H)-one], the “Inh. (%) of Wee1 kinase enzyme activity” value at Wee1 (h) (C 1 μm compound) was determined as 97%. Also, the half-inhibitory concentration (IC50) in the assay with LoVo cells stood at 393 nM; in the assay with NCI-H1299 cells (NCI-H1299, NCI-H1299 cells) it was 481 nM.
For `CN1CCC(N(C)c2ccc(Nc3ncc4c(n3)N3CCN=C3N(c3c(F)cccc3Cl)C4=O)cc2)CC1` [Example 113, 6-(2-Chloro-6-fluorophenyl)-2-((4-(methyl(1-methylpiperidin-4-yl)amino)phenyl)amino)-8,9-dihydroimidazo[1,2-a]pyrimido[5,4-e]pyrimidin-5(6H)-one], in that order: 96%, 483 nM and 672 nM.
`CN1CCN(c2ccc(Nc3ncc4c(n3)N3CCN=C3N(c3c(F)cccc3F)C4=O)cc2Cl)CC1` [Example 100, 6-(2,6-Difluorophenyl)-2-((3-chloro-4-(4-methylpiperazin-1-yl)phenyl)amino)-8,9-dihydroimidazo[1,2-a]pyrimido[5,4-e]pyrimidin-5(6H)-one]: on Wee1 (h) (C 1 μm compound), the “Inh. (%) of Wee1 kinase enzyme activity” value was found to be 87%. For the same molecule, the half-inhibitory concentration (IC50) in the assay on LoVo cells was 172 nM; with NCI-H1299 cells (NCI-H1299 cells), 532 nM.
In the case of `Cc1cccc(C)c1N1C(=O)c2cnc(Nc3ccc4c(c3)CN(C)CC4(C)C)nc2N2CCN=C21` [Example 16, 6-(2,6-Dimethylphenyl)-2-((2,4,4-trimethyl-1,2,3,4-tetrahydroisoquinolin-7-yl)amino)-8,9-dihydroimidazo[1,2-a]pyrimido[5,4-e]pyrimidin-5(6H)-one], the “Inh. (%) of Wee1 kinase enzyme activity” value at Wee1 (h) (C 0.01 μm compound) is on record as 15%; on Wee1 (h) (C 0.1 μm compound) it was 59%; on Wee1 (h) (C 1 μm compound) it was 98%. Further, the IC50 stood at 4760 nM in the assay on LoVo cells and 617 nM with NCI-H1299 cells (NCI-H1299 cells).
For `Cc1cc(Nc2ncc3c(n2)N2CCN=C2N(c2c(F)cccc2Cl)C3=O)cc(Cl)c1N1CCN(C)CC1` [Example 125, 6-(2-Chloro-6-fluorophenyl)-2-((3-chloro-5-methyl-4-(4-methylpiperazin-1-yl)phenyl)amino)-8,9-dihydroimidazo[1,2-a]pyrimido[5,4-e]pyrimidin-5(6H)-one], the “Inh. (%) of Wee1 kinase enzyme activity” value at Wee1 (h) (C 0.01 μm compound) is 18%; at Wee1 (h) (C 0.1 μm compound) it was 74%; at Wee1 (h) (C 1 μm compound) it was 95%. Also, the half-inhibitory concentration (IC50) was 26.4 nM in the assay on LoVo cells and 92.9 nM in the assay on NCI-H1299 cells (NCI-H1299, NCI-H1299 cells).

By IC50 is commonly meant the concentration that inhibits the measured activity by half.

These data come from US11345711B2, “8,9-dihydroimidazo[1,2-a]pyrimido[5,4-e]pyrimidin-5(6H)-ones” (IMPACT THERAPEUTICS (SHANGHAI), INC, priority 2016, dated 2022).
